# Experimental data reported in PubChem BioAssay AID1996.
# Details: buffer; pH 7.4; 200.0 µM
row,SMILES,solubility kinetic [µg/mL]
1,COc1ccc(NC(=O)CN(C)CC(=O)NC2CCCCC2C)cc1 (stereo not drawn),50.2
2,Cc1sc2ncnc(N3CCC(C(=O)Nc4ccc(OC(F)F)c(Cl)c4)CC3)c2c1C,5.7
3,CCOc1ccc(NC(=O)c2nc(SCC)ncc2Cl)cc1,< 0.2
4,Cc1sc2ncnc(N3CCCC(C)C3)c2c1C.Cl (stereo not drawn),11
5,CCOC(=O)c1ccc(NC(=O)N2C[C@@H]3C[C@@H](C2)c2cccc(=O)n2C3)cc1,> 57.2
6,COc1ccc(NC(=O)C2CC(c3c(F)cccc3Cl)=NO2)cc1 (stereo not drawn),40.8
7,O=C(/C=C/c1ccc([N+](=O)[O-])cc1)OCC(=O)N1CCCCCC1,18.9
8,CCNC(=S)N1CCC(C(=O)c2ccc(Cl)cc2)CC1,> 46.6
9,Cc1cc(C(=O)N2CCN(c3ncccn3)CC2)nn1C,> 43
10,O=C(/C=C/c1ccc(Cl)c(Cl)c1)N1CCOCC1,35.5
11,Cc1[nH]c2ccc(Cl)cc2c(=O)c1CN1CCCC1,38.7
12,Cn1cc(C(=O)N2CCOCC2)c2ccccc21,> 36.6
13,Cc1ccc(NC(=O)COC(=O)CCC2CCCC2)cc1S(=O)(=O)N1CCOCC1,15.8
14,O=C(NCC(=O)N1CCCC(C(F)(F)F)C1)c1ccc(Oc2ccccc2)cc1 (stereo not drawn),36.3
15,O=c1c2ccccc2ncn1-c1cccc(Br)c1,5.5
16,CCc1ccc(S(=O)(=O)Nc2nccs2)cc1,27.5
17,CC1=CC(C)C(COC(=O)CN2CCCCC2)C(C)C1 (stereo not drawn),8.4
18,O=C(CN1C(=O)NC2NC(=O)NC21)N/N=C/c1ccccc1F (stereo not drawn),> 48
19,CC(C)NC(=S)NCc1cccs1,> 32.2
20,Cc1cc(C)c2c(=O)c(C#N)coc2c1,26.4
21,CC1CC(C)CN(C(=O)COc2cccnc2[N+](=O)[O-])C1 (stereo not drawn),> 44
22,CC1CCC(NC(=O)CC(NC(N)=O)c2ccccc2Cl)CC1 (stereo not drawn),46.6
23,O=C(COC(=O)Cc1ccc([N+](=O)[O-])cc1)NCc1ccc2c(c1)OCO2,55.5
24,Cc1ccc[n+](CC(=O)Nc2ccc(N(C)C)cc2)c1.[Cl-],> 45.9
25,NC(=O)C1CCCN(CC(=O)N2CCN(c3ccccc3)CC2)C1 (stereo not drawn),48.4
26,Cl.N=c1ccccn1Cc1ccccc1,> 33.1
27,COc1ccc2c(c1OC)CN1CCc3cc4c(cc3C1C2)OCO4 (stereo not drawn),2.1
28,CCOc1ccc(NC(=O)CN2C(=O)CSC2=O)cc1,> 44.1
29,O=C1CCC([N+](=O)[O-])C(c2cccc3ccccc23)N1 (stereo not drawn),> 40.5

# The remaining lines, values ahead:
row,solubility kinetic [µg/mL],SMILES
1,31.3,Cc1cc(C(=O)Nc2ccccc2C(=O)O)oc1C
2,1.1,CC(=O)c1sc(-c2ccccc2)cc1NS(=O)(=O)c1ccc(C)cc1
3,2.3,C/C=C/C=C(/NC(=O)c1ccccc1)C(=O)Nc1ccccc1
4,37.1,NC(=O)c1ccccc1NC(=O)N1CCOCC1
5,6.3,Fc1cccc(NC(=S)N2CCc3ccccc32)c1
6,2.4,COc1ccccc1OCC(=O)Nc1ccc(S(=O)(=O)N(C)c2ccccc2)cc1
7,3,CC(C)[C@H](NC(=O)c1ccccc1)C(=O)OCC(=O)Nc1ccc(S(=O)(=O)N2CCOCC2)cc1
8,2.8,Cc1cc(C)cc(NC(=O)CN2CCN(c3ccccn3)CC2)c1
9,5.1,Cc1onc(-c2c(Cl)cccc2Cl)c1C(=O)c1ccccc1
10,2.4,Cc1ccc(S(=O)(=O)N(C)C)cc1NC(=O)c1sccc1Cl
11,25.5,Cc1ccc(C(=O)CN2CCN(c3ccccn3)CC2)c(C)c1
12,> 48.4,COc1ccccc1NC(=O)NNC(=O)CCN1CCOCC1
13,45.1,O=C(Oc1ccccc1C(=O)N1CCOCC1)c1ccc(F)cc1
14,38.3,O=C(O)CCC(=O)NCc1c(Cl)cccc1Sc1ccc(Cl)cc1
15,24.9,CN(CCC#N)C(=O)c1cc2c(s1)-c1ccccc1SC2
16,43,O=C(COC(=O)CCc1c[nH]c2ccccc12)NCc1ccc2c(c1)OCO2
17,> 46.6,Cc1ccc(S(=O)(=O)Nc2c(C)cc(C)nc2Cl)cc1
18,> 66,O=C(COC(=O)c1cccnc1Cl)Nc1cccc(S(=O)(=O)N2CCOCC2)c1
19,> 44.8,CN(C)c1cccc(C(=O)NCc2ccc3c(c2)OCO3)c1
20,32.2,CC(C)CC(=O)Nc1cccc(-c2nc3ccccc3[nH]2)c1
21,> 71.2,CCOC(=O)C1=C(C)NC(C)=C(C(=O)OCC)C1C(=O)OCC(=O)NCc1ccccc1OC
22,44.4,Cc1cc(C)cc(NC(=O)N2CCC(NC(=O)c3ccco3)CC2)c1
23,> 57.5,CCOCCn1c(=O)c2c(nc3n2CCCN3Cc2ccccc2)n(C)c1=O
24,> 44.4,Cc1nn(CC(=O)NCc2ccccc2)c(=O)c2cccn12
25,4.3,COc1ccccc1NC(=O)COc1cccnc1[N+](=O)[O-]
26,0.5,COc1cc(C)nc(NC(=S)N(C)C(=O)c2ccccc2)n1
27,3.9,Cc1ccc(OCC(=O)Nc2cc(C(C)(C)C)on2)cc1C
28,1.1,O=C(OCc1cc2ccccc2[nH]c1=O)c1ccc([N+](=O)[O-])cc1
29,> 47.2,COc1ccc(C(=O)CCC(=O)Nc2cccnc2)cc1OC
